According to patent publication US20020013306A1, “TERPYRIDINE-PLATINUM(II) COMPLEXES” (priority 1996, published 2002):
Several values for one entry are separate records, joined by “and”; a condition that tells them apart may be missing. Equal entries are not always repeated. Where two headings read alike, the source gives them in different places.

What was measured:
[1] = system: CH1 human ovarian carcinoma cell line; test: 96 h growth inhibition, sulforhodamine B assay, CH1; assay type: cell-based; conditions: 96 h exposure, v = variable (mean)
[2] = system: CH1cis^R human ovarian carcinoma cell line (cisplatin resistant); test: 96 h growth inhibition, sulforhodamine B assay, CH1cisR; assay type: cell-based; conditions: for IC50: 96 h exposure, growth inhibition, v = variable (mean); for RF resistance factor: IC50 resistant line/IC50 parent line: CH1cis^R / CH1
[3] = system: CH1dox^R human ovarian carcinoma cell line (doxorubicin resistant); test: 96 h growth inhibition, sulforhodamine B assay, CH1doxR; assay type: cell-based; conditions: for IC50: 96 h exposure, growth inhibition; for RF resistance factor: IC50 resistant line/IC50 parent line: CH1dox^R / CH1
[4] = system: A2780 human ovarian carcinoma cell line; test: 96 h growth inhibition, sulforhodamine B assay, A2780; assay type: cell-based; conditions: 96 h exposure, v = variable (mean)
[5] = system: A2780cis^R human ovarian carcinoma cell line (cisplatin resistant); test: 96 h growth inhibition, sulforhodamine B assay, A2780cisR; assay type: cell-based; conditions: for IC50: 96 h exposure, growth inhibition, v = variable (mean); for RF resistance factor: IC50 resistant line/IC50 parent line: A2780cis^R / A2780
[6] = system: SKOV3 human ovarian carcinoma cell line; test: 96 h growth inhibition, sulforhodamine B assay, SKOV3; assay type: cell-based; conditions: 96 h exposure, v = variable (mean)
[7] = system: T. brucei (S427) bloodstream trypomastigotes; test: Trypanosoma brucei bloodstream trypomastigote culture; assay type: cell-based
[8] = system: T. cruzi (MHOM/BR/00/Y); test: Trypanosoma cruzi in mouse peritoneal macrophages; assay type: cell-based
Description: Trypanosoma cruzi: […] Drug activity was determined from the % of infected macrophages in treated cultures. Nifurtimox was used as the positive control.

[9] = system: P falciparum (chloroquin resistant strain K1); test: In vitro antimalarial activity, chloroquine resistant K1; conditions: for % Inhibition, MQ, K1 P. falciparum: duplicates
Description: Plasmodium falciparum: P falciparum (chloroquin resistant strain K1) was cultured at 37° C. in a 5% suspension of infected so erythrocytes (group A Rh^+) in complete medium as described by E L Elueze, S L Croft and D C Warhurst, J Antimicrobial Chemotherapy, 1996, 37, 511-518. The in vitro antimalarial activity of compounds were likewise determined according to their protocol. Mefloquin was used as the positive control.”

Compound	IC50 [1]	IC50 [2]	RF resistance factor: IC50 resistant line/IC50 parent line [2]	IC50 [3]	RF resistance factor: IC50 resistant line/IC50 parent line [3]	IC50 [4]	IC50 [5]	RF resistance factor: IC50 resistant line/IC50 parent line [5]	IC50 [6]	% Inhibition, Trypanosoma brucei ([7]; 0.1 μM)	% Inhibition, Trypanosoma brucei ([7]; 0.3 μM)	% Inhibition, Trypanosoma brucei ([7]; 1 μM)	% Inhibition, Trypanosoma brucei ([7]; 3 μM)	% Inhibition, Trypanosoma brucei ([7]; 10 μM)	% Inhibition, Trypanosoma brucei ([7]; 30 μM)	also measured
4,4′-Vinylidenedipyridine bis[2,2′:6′,2″-terpyridine platinum II] tetrafluoroborate [Compound A14]	1.35 µM	0.63 µM	0.46	5.1 µM	3.8	1.6 µM	2.4 µM	1.5	1.3 µM							
4,4′-Vinylidenedipyridine bis[4′-(4-bromophenyl)-2,2′:6′,2″-terpyridine platinum II]tetrafluoroborate [Compound Q14]	2 µM	2.8 µM	1.4	1.9 µM	0.9		2.3 µM		4.7 µM							
4,4′-Vinylidenedipyridine bis[4′-chloro-2,2′:6′,2″-terpyridine platinum II]tetrafluoroborate [Compound I14]	15 µM	17 µM	1.1	7.8 µM	0.5		19 µM		15 µM							
4-Picoline 4′-amino-2,2′:6′,2″-terpyridine platinum II tetrafluoroborate [X]	15.1 µM	16.5 µM	1.1	17 µM	1.1	25 µM	21 µM	0.8	25 µM	0%	0%	100%	100%	100%	100%	
Brc1cc[n+]([Pt-2]23[n+]4ccccc4-c4cccc([n+]42)-c2cccc[n+]23)cc1.F[B-](F)(F)F.F[B-](F)(F)F [Compound A1]	2.1 µM	2.1 µM	1.0	0.85 µM	0.41	5.8 µM	6.7 µM	1.16	9.2 µM	100%	100%	100%	100%	100%	100%	% Inhibition, Trypanosoma brucei ([7]; 0.03 μM): 100%
CC(=O)c1cc[n+]([Pt-2]23[n+]4ccccc4-c4cccc([n+]42)-c2cccc[n+]23)cc1.F[B-](F)(F)F.F[B-](F)(F)F [Compound A2]	2.2 µM	2.3 µM	1.05	1.18 µM	0.54	5.9 µM	7.5 µM	1.25	11.1 µM	62.7%	86.4%	100%	100%	100%	100%	% Inhibition, Trypanosoma cruzi ([8]; 1 μM): 3.8%; % Inhibition, Trypanosoma brucei ([7]; 0.03 μM): 50.0%
CN(C)c1cc[n+]([Pt-2]23[n+]4ccccc4-c4cccc([n+]42)-c2cccc[n+]23)cc1.F[B-](F)(F)F.F[B-](F)(F)F [Compound A3]	6.1 µM	7.5 µM	1.2	3.95 µM	0.6	16 µM	21.5 µM	1.3	13 µM	44.6%	100%	100%	100%	100%	100%	% Inhibition, Trypanosoma cruzi ([8]; 1 μM): 30.3%; % Inhibition, Trypanosoma cruzi ([8]; 3 μM): 85.8%; % Inhibition, Trypanosoma cruzi ([8]; 10 μM): 100%; % Inhibition, Trypanosoma cruzi ([8]; 30 μM): 99.8%
F[B-](F)(F)F.F[B-](F)(F)F.OCc1cc[n+]([Pt-2]23[n+]4ccccc4-c4cccc([n+]42)-c2cccc[n+]23)cc1 [Compound A9]	14 µM	12.5 µM	0.9	5 µM	0.3	40 µM	92 µM	2.3	17 µM	32.5%	100%	100%	100%	100%	100%	
Brc1ccc(-c2cc(-c3ccccn3)nc(-c3ccccn3)c2)cc1.F[B-](F)(F)F.F[B-](F)(F)F.N.[Pt+2] [Compound Q12, Ammonio 4′-(4-bromophenyl)-2,2′:6′,2″-terpyridine platinum II tetrafluoroborate]										100%	100%	100%	100%	100%	100%	
OC(c1cc(C(F)(F)F)nc2c(C(F)(F)F)cccc12)C1CCCCN1 (centres unmarked) [MQ, Mefloquin, reference compound]																% Inhibition, MQ, K1 P. falciparum ([9]; Concn. MQ 0.015625 μM): 0%; % Inhibition, MQ, K1 P. falciparum ([9]; Concn. MQ 0.0626 μM): 77.5% and 56.9%; % Inhibition, MQ, K1 P. falciparum ([9]; Concn. MQ 0.5 μM): 96.4% and 95.3%; % Inhibition, MQ, K1 P. falciparum ([9]; Concn. MQ 1 μM): 94.9% and 91.6%; % Inhibition, MQ, K1 P. falciparum ([9]; Concn. MQ 2 μM): 96.3% and 94.7%; % Inhibition, MQ, K1 P. falciparum ([9]; Concn. MQ 025 μM): 98.0% and 97.2%; % Inhibition, MQ, K1 P. falciparum ([9]; Concn. MQ 003125 μM): 0.5% and 0%; % Inhibition, MQ, K1 P. falciparum ([9]; Concn. MQ): 93.6% and 94.8%; IC50 ([9]; read-out: IC50 (avg), K1 P. falciparum, average of duplicates): 0.06 µM; IC50 ([9]; read-out: IC50, K1 P. falciparum, each duplicate (1),(2)): 0.05 µM and 0.06 µM
Cc1ccncc1.F[B-](F)(F)F.F[B-](F)(F)F.OCCNc1cc(-c2ccccn2)nc(-c2ccccn2)c1.[Pt+2] [U, (4-Picoline)(4′-(N-2-Hydroxyethyl)amino-2,2′:6′,2″-Terpyridine) Platinum (II) Tetrafluoroborate]										0%	0%	0%	68.4%	100%	100%	% Inhibition, Trypanosoma cruzi ([8]; 1 μM): 0%; % Inhibition, Trypanosoma cruzi ([8]; 3 μM): 0%; % Inhibition, Trypanosoma cruzi ([8]; 10 μM): 0%; % Inhibition, Trypanosoma cruzi ([8]; 30 μM): 18.0%
N.N.[Cl][Pt][Cl] [cisplatin, cis[Pt(NH3)2Cl2], reference compound]	0.4 µM	1.2 µM				0.53 µM	8.8 µM		2.25 µM							
CC1CS(=O)(=O)CCN1/N=C/c1ccc([N+](=O)[O-])o1 (centres unmarked) [nifurtimox, Nifurtimox, reference compound]																EC50 ([8]; Trypanosoma cruzi, Peritoneal macrophage, read-out: ED50 against Trypanosoma cruzi): 3 µM
Ammonio 4′-chloro-2,2′:6′,2″-terpyridine platinum II tetrafluoroborate [Compound I12]										0%	0%	100%	100%	100%	100%	
